Experimental findings from patent US9180215B2, “Positron emission tomography imaging method” (PURDUE RESEARCH FOUNDATION, priority 2007, dated 2015) are described below.

What is called Kd is the constant that tells how readily two partners part at equilibrium. Read a high Kd as lower affinity.

This assay concerns the target T1, folate receptors on KB cells (Homo sapiens, UniProt P15328).
T1 construct: endogenous in cells; host or cells: KB cells
Nature of the assay: Competitive binding assay using KB cells (displacement of 3H-folic acid). To be noted: competitive binding at folate receptors on KB cells, 10 nM 3H-folic acid, 37° C., 1 h. The protocol: Competitive binding assay using KB cells. Relative binding affinity of the folate-fluoro-phenyl conjugate was evaluated according to the standard literature protocol by Westerhof et. al. (Mol Pharmacol, 1995, 48, 459-471) and C. P. Leamon et. al. (Bioconjugate Chem., 2006, 17 (5), 1226-1232) with minor modification.
Then cells were rinsed three times with 250 μL of PBS (phosphate saline buffer) and one time with trichloro-acetic acid. 1% sodium dodecylsulfate (250 μL) in PBS were added to each well and after 10 min cell lysates were transferred to individual vials containing 3 mL of scintillation cocktail and radioactivity was counted.
In general terms: Loss of bound radioactivity is the signal in a displacement assay; it reports binding, not function.

Molecules are shown by their SMILES.

T1 sequence (P15328 25-234): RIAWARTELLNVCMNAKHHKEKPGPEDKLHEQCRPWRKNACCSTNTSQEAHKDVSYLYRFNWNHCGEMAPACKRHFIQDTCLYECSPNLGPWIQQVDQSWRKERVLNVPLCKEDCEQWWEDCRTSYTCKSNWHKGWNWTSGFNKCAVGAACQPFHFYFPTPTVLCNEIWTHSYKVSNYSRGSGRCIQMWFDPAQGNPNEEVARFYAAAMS

The compound `Nc1nc2ncc(CNc3ccc(C(=O)N[C@@H](CCC(=O)NCCNC(=O)CCOCCOCCOCCOCCOCCOCCNC(=O)c4ccc(F)cc4)C(=O)O)cc3)nc2c(=O)[nH]1` [compound of FIG. 1] yielded a Kd of 0.0238 µM.
